# Experimental data: patent publication US20260257980A1, “NOVEL DIMETHYLCHALCONE DERIVATIVE” (CHUNG-ANG UNIVERSITY INDUSTRY-ACADEMIC COOPERATION …, priority 2022, published 2026)
# Test system: C2C12 myoblasts differentiated into myotubes
# Experiment: Fatty acid oxidation rate (14CO2 from [1-14C] palmitate) in differentiated C2C12 myotubes
# Format: cell-based
# Conditions: 10 μM DMC derivative, 24 hours, lysate with 0.2 mmol/L [1-14C] palmitate, 3 hours, positive control AICAR, control compounds CON1-CON6, FIG. 1
# Method: To measure the fatty acid oxidation rate, C2C12 myoblasts were primarily cultured in DMEM supplemented with 10% fetal bovine serum, and then cultured for 5 days in DMEM supplemented with 2% horse serum in order to differentiate into myotubes. Then, the differentiated myotubes were treated with 10 μM of the DMC derivative, and cultured for 24 hours, and the cells were then harvested. Next, the harvested cells were lysed using a mitochondrial isolation buffer (250 mmol/L sucrose, 10 mmol/L Tris-HCl, and 1 mmol/L EDTA), treated with 0.2 mmol/L [1-^14C] palmitate, and then allowed to react for 3 hours. Next, the amount of ^14CO2 thus generated was measured, and the measured amount of ^14CO2 was corrected for the total amount of proteins to compare the fatty acid oxidation rate. In this case, AICAR was used as a positive control, and the compounds shown in Table 2 below were used as control compounds.
row,Compound,"fatty acid oxidation rate (amount of 14CO2 generated, corrected for total protein)"
1,"COCOc1c(C)c(O)c(C(=O)/C=C/c2cccc(F)c2)c(OC)c1C [Compound 1, 1-(2′-hydroxy-4′-(methoxymethoxy)-6′-methoxy-3′,5′-dimethylphenyl)-3-(3-fluorophenyl)-2-propen-1-one]","higher fatty acid oxidation effect than the derivatives (CON1, CON2)"
2,"COc1c(C)c(O)c(C)c(O)c1C(=O)/C=C/c1cccc(F)c1 [Compound 8, 1-(2′,4′-dihydroxy-6′-methoxy-3′,5′-dimethylphenyl)-3-(3-fluorophenyl)-2-propen-1-one]","higher fatty acid oxidation effect than the derivatives (CON3, CON4)"
3,"COc1c(C)c(OC)c(C(=O)/C=C/c2cccc(F)c2)c(OC)c1C [Compound 15, 1-(2′,4′,6′-trimethoxy-3′,5′-dimethylphenyl)-3-(3-fluorophenyl)-2-propen-1-one]","higher fatty acid oxidation effect than the derivatives (CON5, CON6)"
